The values that follow come from article PMC9867837 (Cancer letters, 2022).

A short description of one data set: Plasma stability, human. The data set is classed as in vitro ADME. As for the experimental part: (§1) Solubility, human (HLM) and mouse liver microsomal (MLM), and plasma stability studies were performed by Eurofins Cerep Panlabs and Eurofin Discovery Services (www.eurofins.com/PharmaDiscovery), while protein binding studies were performed by Sanford Burnham Prebys Chemical Biology & Drug Discovery Core using standard protocols.

Another data set has as its target T1, hERG (Homo sapiens, UniProt Q12809).
T1 construct: Eurofins-CEREP (contract research organisation that ran the assay)
As to the kind of experiment: hERG Qpatch assay. The format is cell-based. Background: The hERG channel carries a current that helps repolarise heart muscle cells.

Data set [1] in a line: Mouse liver microsome stability. The data set is classed as in vitro ADME. Particulars: liver microsomes, read-out: Metabolic Stability MLM t1/2. Here is the method:
as §1

In data set [2] the target is SH2 domain of pure recombinant Stat3 (Homo sapiens, UniProt P40763). As to the kind of experiment: Stat3 fluorescence polarization (FP) assay. The data set is classed as binding. Particulars: 0–10 μM, 5-carboxyfluorescein-GpYLPQTV-NH2 probe. Here is the method: Details are presented in Supplementary Information, “Methods”.
The Stat3:azetidine compound interaction was investigated further by focusing on how the compounds might interfere with Stat3 dimerization (Stat3:Stat3), which occurs via pTyr peptide:SH2 domain interaction. […]
confocal microscope (Stellaris 8-STED Super -resolution , Germany) with a 60x oil lens and images were processed by ImageJ software.
1.2.9. Fluorescence polarization assay (FP)
These studies were conducted as previously reported using the labeled phosphopeptide, 5-carboxyfluorescein GpYLPQTV-NH 2 (where pY represents phospho-Tyr) as probe and purified recombinant Stat3, with some modifications. […]
10 µM of unlabeled GpYLPQTV-NH 2 (positive control) or H182 at 30 °C for 30 min in the indicated assay buffer conditions, prior to the addition of the labeled probe at 10 nM final concentration and incubated for 30 min at room temperature, and thereafter reading the FP signal at 10, 30, and 60 min using the SpectraMax ID5 (Molecular Devices, San Jose, CA), with the set gain adjustment at 35 mP. In some cases, the recombinant His-Stat3 was pre-incubated with the unlabeled GpYLPQTV-NH 2 or H182 at 0-10 µM for 10 min or at 0-50 µM for 30 min prior to incubation with the labeled probe, and thereafter reading the FP signal at 10, 30, or 60 min using the SpectraMax ID5, with the set gain adjustment at 35 mP.
1.2.10. […]

T1 sequence (Q12809 whole entry): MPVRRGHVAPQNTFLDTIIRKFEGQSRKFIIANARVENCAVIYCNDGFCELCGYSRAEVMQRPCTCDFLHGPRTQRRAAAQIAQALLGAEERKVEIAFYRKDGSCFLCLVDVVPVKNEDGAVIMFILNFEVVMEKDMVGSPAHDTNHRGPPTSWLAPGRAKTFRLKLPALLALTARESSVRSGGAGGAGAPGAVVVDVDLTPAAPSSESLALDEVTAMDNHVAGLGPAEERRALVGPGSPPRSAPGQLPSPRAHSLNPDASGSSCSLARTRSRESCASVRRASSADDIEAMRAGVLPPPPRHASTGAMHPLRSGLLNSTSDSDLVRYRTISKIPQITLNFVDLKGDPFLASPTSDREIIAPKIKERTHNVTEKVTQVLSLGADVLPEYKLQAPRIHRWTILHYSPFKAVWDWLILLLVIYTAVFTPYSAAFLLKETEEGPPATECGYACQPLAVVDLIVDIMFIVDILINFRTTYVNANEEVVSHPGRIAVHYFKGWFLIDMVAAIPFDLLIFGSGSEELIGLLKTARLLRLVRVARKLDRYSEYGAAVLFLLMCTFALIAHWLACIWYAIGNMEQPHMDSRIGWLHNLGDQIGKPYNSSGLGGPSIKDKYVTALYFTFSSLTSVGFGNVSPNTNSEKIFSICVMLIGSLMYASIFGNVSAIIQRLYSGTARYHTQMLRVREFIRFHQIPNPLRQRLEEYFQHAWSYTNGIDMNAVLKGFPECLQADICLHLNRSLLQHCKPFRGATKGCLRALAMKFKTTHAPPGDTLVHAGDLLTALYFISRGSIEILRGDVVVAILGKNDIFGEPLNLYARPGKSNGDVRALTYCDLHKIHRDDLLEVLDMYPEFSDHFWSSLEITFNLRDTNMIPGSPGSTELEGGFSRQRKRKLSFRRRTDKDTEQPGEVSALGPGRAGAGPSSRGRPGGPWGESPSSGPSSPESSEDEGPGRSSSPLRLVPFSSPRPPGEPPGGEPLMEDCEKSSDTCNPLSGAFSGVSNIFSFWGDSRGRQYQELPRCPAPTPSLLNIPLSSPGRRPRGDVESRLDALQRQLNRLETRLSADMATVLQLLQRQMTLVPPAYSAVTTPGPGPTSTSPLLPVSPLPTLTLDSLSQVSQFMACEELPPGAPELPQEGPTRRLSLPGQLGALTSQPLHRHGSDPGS
Chain of SH2 domain of pure recombinant Stat3 (P40763 whole entry, the tested form may be a part): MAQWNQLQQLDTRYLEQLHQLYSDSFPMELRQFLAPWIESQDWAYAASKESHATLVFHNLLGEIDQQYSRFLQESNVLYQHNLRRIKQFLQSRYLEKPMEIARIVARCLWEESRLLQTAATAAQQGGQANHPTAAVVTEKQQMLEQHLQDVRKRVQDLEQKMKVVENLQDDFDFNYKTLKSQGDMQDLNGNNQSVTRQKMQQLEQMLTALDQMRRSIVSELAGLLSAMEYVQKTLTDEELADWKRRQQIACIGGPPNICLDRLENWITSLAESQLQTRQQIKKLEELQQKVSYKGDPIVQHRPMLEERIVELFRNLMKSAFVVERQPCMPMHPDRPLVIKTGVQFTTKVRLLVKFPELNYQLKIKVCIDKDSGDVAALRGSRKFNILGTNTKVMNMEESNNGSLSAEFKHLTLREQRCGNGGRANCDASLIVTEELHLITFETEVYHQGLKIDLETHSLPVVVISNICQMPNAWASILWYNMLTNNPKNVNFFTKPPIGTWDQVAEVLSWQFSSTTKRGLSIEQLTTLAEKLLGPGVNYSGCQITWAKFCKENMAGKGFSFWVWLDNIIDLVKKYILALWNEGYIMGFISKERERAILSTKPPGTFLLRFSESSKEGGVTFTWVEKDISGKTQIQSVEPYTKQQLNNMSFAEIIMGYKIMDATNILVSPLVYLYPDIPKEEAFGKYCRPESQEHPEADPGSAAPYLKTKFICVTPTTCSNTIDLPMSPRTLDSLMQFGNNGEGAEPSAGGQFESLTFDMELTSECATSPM

Take `O=C([C@H]1CCN1S(=O)(=O)c1c(F)c(F)c(F)c(F)c1F)N(Cc1ccc(C2CCCCC2)cn1)c1ccc2c(=O)[nH]ncc2c1` [Compound H182]: the fraction remaining at 1 h in the data set “Plasma stability, human” (1 h) is 53%. Moreover, the fraction remaining at 2 h in “Plasma stability, human” (2 h) amounted to 10%. Moreover, the concentration for half-maximal inhibition (IC50) on hERG was more than 10 µM. Also, in data set [1], the half-life was more than 2.5 h. The “Effect on FP signal” value in data set [2] is listed as “fluctuations of the FP signal”.

As a reminder, the share remaining is what is left of the initial amount, in per cent. A lower share remaining goes with a greater loss. As a reminder, the IC50 is the concentration that gives 50% inhibition.
